These molecules were tested against USP7 (Homo sapiens, UniProt Q93009) (assay: USP7 inhibitory potency (Table 1)).
Assay type: biochemical

Sequence of USP7 (Q93009 whole entry): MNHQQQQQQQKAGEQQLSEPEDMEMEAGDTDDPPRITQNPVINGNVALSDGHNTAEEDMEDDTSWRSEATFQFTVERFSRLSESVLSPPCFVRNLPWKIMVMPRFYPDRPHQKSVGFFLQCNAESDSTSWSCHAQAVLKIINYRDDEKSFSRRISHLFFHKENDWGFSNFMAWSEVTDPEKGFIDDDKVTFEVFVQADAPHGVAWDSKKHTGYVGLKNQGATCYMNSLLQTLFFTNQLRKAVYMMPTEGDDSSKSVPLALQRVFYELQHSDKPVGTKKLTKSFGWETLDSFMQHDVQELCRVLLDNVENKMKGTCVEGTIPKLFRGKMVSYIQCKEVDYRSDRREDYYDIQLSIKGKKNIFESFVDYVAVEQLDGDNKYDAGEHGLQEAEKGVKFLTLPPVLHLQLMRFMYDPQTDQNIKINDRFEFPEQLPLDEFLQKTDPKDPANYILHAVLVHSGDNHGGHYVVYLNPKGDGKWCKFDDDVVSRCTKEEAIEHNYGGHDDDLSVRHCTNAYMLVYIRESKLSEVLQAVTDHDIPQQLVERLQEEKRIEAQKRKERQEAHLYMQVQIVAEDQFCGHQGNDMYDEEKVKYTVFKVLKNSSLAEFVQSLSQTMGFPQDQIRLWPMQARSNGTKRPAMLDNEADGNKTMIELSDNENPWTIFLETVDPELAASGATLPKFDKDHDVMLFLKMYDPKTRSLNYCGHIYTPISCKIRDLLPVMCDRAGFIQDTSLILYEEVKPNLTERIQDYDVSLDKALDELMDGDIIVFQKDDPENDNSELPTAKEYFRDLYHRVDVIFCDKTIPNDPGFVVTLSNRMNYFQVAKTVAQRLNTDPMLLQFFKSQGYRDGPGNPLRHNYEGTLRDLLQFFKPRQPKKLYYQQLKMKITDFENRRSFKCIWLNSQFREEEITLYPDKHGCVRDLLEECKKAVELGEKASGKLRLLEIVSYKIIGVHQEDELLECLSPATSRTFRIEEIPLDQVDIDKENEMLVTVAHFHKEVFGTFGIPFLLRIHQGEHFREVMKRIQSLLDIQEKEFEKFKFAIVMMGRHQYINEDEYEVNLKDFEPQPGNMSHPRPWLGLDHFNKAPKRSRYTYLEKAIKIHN

| IC50 [nM] | SMILES |
| --- | --- |
| < 1000 | Clc1cc2c(c(-c3ccnc4ccnn34)c1)O[C@@H](c1onc3c1CNCC3)C2 [(R)-3-(5-chloro-7-(pyrazolo[1,5-a]pyrimidin-7-yl)-2,3-dihydrobenzofuran-2-yl)-4,5,6,7-tetrahydroisoxazolo[4,3-c]pyridine] |
| < 1000 | Clc1cc2c(c(-c3ccnc4ccccc34)c1)O[C@@H](c1onc3c1CNCC3)C2 [(R)-3-(5-chloro-7-(quinolin-4-yl)-2,3-dihydrobenzofuran-2-yl)-4,5,6,7-tetrahydroisoxazolo[4,3-c]pyridine] |
| < 1000 | Clc1cc2c(c(-c3ccnc4ccsc34)c1)O[C@@H](c1onc3c1CNCC3)C2 [(R)-3-(5-chloro-7-(thieno[3,2-b]pyridin-7-yl)-2,3-dihydrobenzofuran-2-yl)-4,5,6,7-tetrahydroisoxazolo[4,3-c]pyridine] |
| < 1000 | FC(F)(F)CN1CCc2noc([C@H]3Cc4cc(Cl)cc(-c5ccnc6ccsc56)c4O3)c2C1 [(R)-3-(5-chloro-7-(thieno[3,2-b]pyridin-7-yl)-2,3-dihydrobenzofuran-2-yl)-5-(2,2,2-trifluoroethyl)-4,5,6,7-tetrahydroisoxazolo[4,3-c]pyridine] |
| < 1000 | CCN1CCc2noc([C@H]3Cc4cc(Cl)cc(-c5ccnc6ccsc56)c4O3)c2C1 [(R)-3-(5-chloro-7-(thieno[3,2-b]pyridin-7-yl)-2,3-dihydrobenzofuran-2-yl)-5-ethyl-4,5,6,7-tetrahydroisoxazolo[4,3-c]pyridine] |
| < 1000 | CC(C)N1CCc2noc([C@H]3Cc4cc(Cl)cc(-c5ccnc6ccsc56)c4O3)c2C1 [(R)-3-(5-chloro-7-(thieno[3,2-b]pyridin-7-yl)-2,3-dihydrobenzofuran-2-yl)-5-isopropyl-4,5,6,7-tetrahydroisoxazolo[4,3-c]pyridine] |
| < 1000 | CN1CCc2noc([C@H]3Cc4cc(Cl)cc(-c5ccnc6ccsc56)c4O3)c2C1 [(R)-3-(5-chloro-7-(thieno[3,2-b]pyridin-7-yl)-2,3-dihydrobenzofuran-2-yl)-5-methyl-4,5,6,7-tetrahydroisoxazolo[4,3-c]pyridine] |
| < 1000 | Clc1cc2c(c(-c3ncnc4ccsc34)c1)O[C@@H](c1onc3c1CNCC3)C2 [(R)-3-(5-chloro-7-(thieno[3,2-d]pyrimidin-4-yl)-2,3-dihydrobenzofuran-2-yl)-4,5,6,7-tetrahydroisoxazolo[4,3-c]pyridine] |
| < 1000 | Clc1cc2c(c(-c3ccnc4cc(-c5cc[nH]n5)sc34)c1)O[C@@H](c1onc3c1CNCC3)C2 [(R)-3-(7-(2-(1H-pyrazol-3-yl)thieno[3,2-b]pyridin-7-yl)-5-chloro-2,3-dihydrobenzofuran-2-yl)-4,5,6,7-tetrahydroisoxazolo[4,3-c]pyridine] |
| 1000 to 10000 | OC1(c2cc3nccc(-c4cc(Cl)cc5c4O[C@@H](c4onc6c4CNCC6)C5)c3s2)CNC1 [(R)-3-(7-(5-chloro-2-(4,5,6,7-tetrahydroisoxazolo[4,3-c]pyridin-3-yl)-2,3-dihydrobenzofuran-7-yl)thieno[3,2-b]pyridin-2-yl)azetidin-3-ol] |
| < 1000 | OC1(c2cc3nccc(-c4cc(Cl)cc5c4O[C@@H](c4onc6c4CNCC6)C5)c3s2)COC1 [(R)-3-(7-(5-chloro-2-(4,5,6,7-tetrahydroisoxazolo[4,3-c]pyridin-3-yl)-2,3-dihydrobenzofuran-7-yl)thieno[3,2-b]pyridin-2-yl)oxetan-3-ol] |
| 1000 to 10000 | CN(C)C(=O)CCc1cc2nccc(-c3cc(Cl)cc4c3O[C@@H](C(=O)N3CCNCC3)C4)c2s1 [(R)-3-(7-(5-chloro-2-(piperazine-1-carbonyl)-2,3-dihydrobenzofuran-7-yl)thieno[3,2-b]pyridin-2-yl)-N,N-dimethylpropanamide] |
| < 1000 | CNC(=O)CCc1cc2nccc(-c3cc(Cl)cc4c3O[C@@H](C(=O)N3CCNCC3)C4)c2s1 [(R)-3-(7-(5-chloro-2-(piperazine-1-carbonyl)-2,3-dihydrobenzofuran-7-yl)thieno[3,2-b]pyridin-2-yl)-N-methylpropanamide] |
| < 1000 | O[C@]1(c2cc3nccc(-c4cc(Cl)cc5c4O[C@@H](c4onc6c4CNCC6)C5)c3s2)CCOC1 [(R)-3-(7-((R)-5-chloro-2-(4,5,6,7-tetrahydroisoxazolo[4,3-c]pyridin-3-yl)-2,3-dihydrobenzofuran-7-yl)thieno[3,2-b]pyridin-2-yl)tetrahydrofuran-3-ol] |
| < 1000 | CN1CCC(=O)N(Cc2cc3nccc(-c4cc(Cl)cc5c4O[C@@H](C(=O)N4CCNCC4)C5)c3s2)C1=O [(R)-3-((7-(5-chloro-2-(piperazine-1-carbonyl)-2,3-dihydrobenzofuran-7-yl)thieno[3,2-b]pyridin-2-yl)methyl)-1-methyldihydropyrimidine-2,4(1H,3H)-dione] |
| < 1000 | CN1CC(=O)N(Cc2cc3nccc(-c4cc(Cl)cc5c4O[C@@H](C(=O)N4CCNCC4)C5)c3s2)C1=O [(R)-3-((7-(5-chloro-2-(piperazine-1-carbonyl)-2,3-dihydrobenzofuran-7-yl)thieno[3,2-b]pyridin-2-yl)methyl)-1-methylimidazolidine-2,4-dione] |

| IC50 [nM] | SMILES |
| --- | --- |
| < 1000 | Cn1ccc(=O)n(Cc2cc3nccc(-c4cc(Cl)cc5c4O[C@@H](C(=O)N4CCNCC4)C5)c3s2)c1=O [(R)-3-((7-(5-chloro-2-(piperazine-1-carbonyl)-2,3-dihydrobenzofuran-7-yl)thieno[3,2-b]pyridin-2-yl)methyl)-1-methylpyrimidine-2,4(1H,3H)-dione] |
| < 1000 | O=C([C@H]1Cc2cc(Cl)cc(-c3ccnc4cc(CN5C(=O)CCNC5=O)sc34)c2O1)N1CCNCC1 [(R)-3-((7-(5-chloro-2-(piperazine-1-carbonyl)-2,3-dihydrobenzofuran-7-yl)thieno[3,2-b]pyridin-2-yl)methyl)dihydropyrimidine-2,4(1H,3H)-dione] |
| < 1000 | O=C([C@H]1Cc2cc(Cl)cc(-c3ccnc4cc(CN5C(=O)CNC5=O)sc34)c2O1)N1CCNCC1 [(R)-3-((7-(5-chloro-2-(piperazine-1-carbonyl)-2,3-dihydrobenzofuran-7-yl)thieno[3,2-b]pyridin-2-yl)methyl)imidazolidine-2,4-dione] |
| < 1000 | O=C1OCCN1Cc1cc2nccc(-c3cc(Cl)cc4c3O[C@@H](C(=O)N3CCNCC3)C4)c2s1 [(R)-3-((7-(5-chloro-2-(piperazine-1-carbonyl)-2,3-dihydrobenzofuran-7-yl)thieno[3,2-b]pyridin-2-yl)methyl)oxazolidin-2-one] |
| < 1000 | O=C([C@H]1Cc2cc(Cl)cc(-c3ccnc4cc(CN5C(=O)COC5=O)sc34)c2O1)N1CCNCC1 [(R)-3-((7-(5-chloro-2-(piperazine-1-carbonyl)-2,3-dihydrobenzofuran-7-yl)thieno[3,2-b]pyridin-2-yl)methyl)oxazolidine-2,4-dione] |
| < 1000 | O=C([C@H]1Cc2cc(Cl)cc(-c3ccnc4cc(Cn5cnccc5=O)sc34)c2O1)N1CCNCC1 [(R)-3-((7-(5-chloro-2-(piperazine-1-carbonyl)-2,3-dihydrobenzofuran-7-yl)thieno[3,2-b]pyridin-2-yl)methyl)pyrimidin-4(3H)-one] |
| < 1000 | O=C([C@H]1Cc2cc(Cl)cc(-c3ccnc4cc(Cn5c(=O)cc[nH]c5=O)sc34)c2O1)N1CCNCC1 [(R)-3-((7-(5-chloro-2-(piperazine-1-carbonyl)-2,3-dihydrobenzofuran-7-yl)thieno[3,2-b]pyridin-2-yl)methyl)pyrimidine-2,4(1H,3H)-dione] |
| < 1000 | O=C([C@H]1Cc2cc(Cl)cc(-c3ccnc4cc(CN5C(=O)CSC5=O)sc34)c2O1)N1CCNCC1 [(R)-3-((7-(5-chloro-2-(piperazine-1-carbonyl)-2,3-dihydrobenzofuran-7-yl)thieno[3,2-b]pyridin-2-yl)methyl)thiazolidine-2,4-dione] |
| < 1000 | Cn1nc2c(c1[C@H]1Cc3cc(Cl)cc(-c4ncnc5ccoc45)c3O1)CNCC2 [(R)-4-(5-chloro-2-(2-methyl-4,5,6,7-tetrahydro-2H-pyrazolo[4,3-c]pyridin-3-yl)-2,3-dihydrobenzofuran-7-yl)furo[3,2-d]pyrimidine] |
| < 1000 | Cn1nc2c(c1[C@H]1Cc3cc(Cl)cc(-c4ncnc5ccsc45)c3O1)CNCC2 [(R)-4-(5-chloro-2-(2-methyl-4,5,6,7-tetrahydro-2H-pyrazolo[4,3-c]pyridin-3-yl)-2,3-dihydrobenzofuran-7-yl)thieno[3,2-d]pyrimidine] |
| < 1000 | N#Cc1ccc2c(-c3cc(Cl)cc4c3O[C@@H](c3n[nH]c5c3CNCC5)C4)ccnc2c1 [(R)-4-(5-chloro-2-(4,5,6,7-tetrahydro-1H-pyrazolo[4,3-c]pyridin-3-yl)-2,3-dihydrobenzofuran-7-yl)quinoline-7-carbonitrile] |
| 10000 to 30000 | Cc1cc(-c2cc(Cl)cc3c2O[C@@H](c2onc4c2CNCC4)C3)c2ccc(C#N)cc2n1 [(R)-4-(5-chloro-2-(4,5,6,7-tetrahydroisoxazolo[4,3-c]pyridin-3-yl)-2,3-dihydrobenzofuran-7-yl)-2-methylquinoline-7-carbonitrile] |
| < 1000 | Clc1cc2c(c(-c3ccnc4c3CC3(COCOC3)C4)c1)O[C@@H](c1onc3c1CNCC3)C2 [(R)-4-(5-chloro-2-(4,5,6,7-tetrahydroisoxazolo[4,3-c]pyridin-3-yl)-2,3-dihydrobenzofuran-7-yl)-5,7-dihydrospiro[cyclopenta[b]pyridine-6,5′-[1,3]dioxane]] |
| < 1000 | N#Cc1cc2nccc(-c3cc(Cl)cc4c3O[C@@H](c3onc5c3CNCC5)C4)c2cc1F [(R)-4-(5-chloro-2-(4,5,6,7-tetrahydroisoxazolo[4,3-c]pyridin-3-yl)-2,3-dihydrobenzofuran-7-yl)-6-fluoroquinoline-7-carbonitrile] |
| 1000 to 10000 | Cc1cc2c(-c3cc(Cl)cc4c3O[C@@H](c3onc5c3CNCC5)C4)ccnc2cc1C#N [(R)-4-(5-chloro-2-(4,5,6,7-tetrahydroisoxazolo[4,3-c]pyridin-3-yl)-2,3-dihydrobenzofuran-7-yl)-6-methylquinoline-7-carbonitrile] |
| 1000 to 10000 | N#Cc1ccc2nccc(-c3cc(Cl)cc4c3O[C@@H](c3onc5c3CNCC5)C4)c2c1 [(R)-4-(5-chloro-2-(4,5,6,7-tetrahydroisoxazolo[4,3-c]pyridin-3-yl)-2,3-dihydrobenzofuran-7-yl)quinoline-6-carbonitrile] |
